According to patent publication US5710174A, “Factor XIIIA inhibitor” (Zymo Genetics, Inc., priority 1995, dated 1998):
Like-named read-outs stand apart in the source and are kept apart here.

Legend:
tTG = target: T1, tTG (Cavia cutleri, UniProt P08587); test: Fibrinogen clotting assay, tTG (alpha bands scanned); type: biochemical; conditions: read-out: % tTG Inhibition
T1 construct: purchased Sigma
T1 sequence (P08587 1-690): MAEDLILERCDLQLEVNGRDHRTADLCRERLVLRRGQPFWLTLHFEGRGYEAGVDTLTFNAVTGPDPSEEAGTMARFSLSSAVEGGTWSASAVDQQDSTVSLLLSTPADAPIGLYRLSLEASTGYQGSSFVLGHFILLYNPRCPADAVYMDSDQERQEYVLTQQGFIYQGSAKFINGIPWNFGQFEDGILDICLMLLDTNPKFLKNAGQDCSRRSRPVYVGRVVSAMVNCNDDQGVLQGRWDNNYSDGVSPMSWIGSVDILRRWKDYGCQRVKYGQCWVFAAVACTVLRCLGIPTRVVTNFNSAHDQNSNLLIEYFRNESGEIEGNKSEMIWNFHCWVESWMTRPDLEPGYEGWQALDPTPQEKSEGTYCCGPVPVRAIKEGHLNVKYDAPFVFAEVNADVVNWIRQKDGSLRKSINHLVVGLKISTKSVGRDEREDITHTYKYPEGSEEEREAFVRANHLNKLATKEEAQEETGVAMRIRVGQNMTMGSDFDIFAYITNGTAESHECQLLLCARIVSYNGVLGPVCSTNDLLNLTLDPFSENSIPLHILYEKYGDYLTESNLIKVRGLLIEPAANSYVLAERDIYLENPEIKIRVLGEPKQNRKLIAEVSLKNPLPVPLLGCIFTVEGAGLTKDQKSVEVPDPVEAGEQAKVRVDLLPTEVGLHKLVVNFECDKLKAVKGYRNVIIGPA
Procedure: Clots were formed in 1.5 ml Eppendorf tubes by adding reagents to give the following final assay concentrations in a total volume of 100 μl: 2 mg/ml FXIII-free fibrinogen purified on a rabbit anti-FXIII column (Enzyme Research Labs); 20 mM CaCl2; 1 unit/ml thrombin (bovine, Enzyme Research Labs); and either 1 μg/ml FXIIIa (recombinant human FXIIIa2 (ZymoGenetics)) or 20 μg/ml tTG (Sigma) in 120 mM NaCl plus 25 mM Tris at about pH 7.2. In addition, 10 μl of one of the following was added to each tube in varying concentrations to determine a dose response: iodoacetamide, ZG-1400a or cerulenin. The final reaction volume in each Eppendorf tube was adjusted to 100 μl with 120 mMNaCl plus 25 mM Tris at about pH 7.2.
A positive (complete cross-linking) control contained fibrinogen, enzyme (FXIIIa or tTG), calcium, and thrombin at final assay concentrations listed above, and was tested in the absence of any inhibitor. A negative (no cross-linking) control contained a solution of FXIII-free fibrinogen, thrombin and 20 μM EDTA [(ethylene dinitrilo)tetraacetic acid, disodium salt, dihydrate (J. T. Baker, Phillipsburg, N.J.)] in the absence of calcium and enzyme. Both positive and negative controls contained a final DMSO concentration of 1%. The FXIIIa-treated clots and their controls were incubated for about 10 min at about 37° C., while the tTG-treated clots and their controls were incubated for about 4 h at about 37° C. After incubation, all of the clots and controls were frozen to quench reactions.
Frozen clots and controls were boiled for about 3 min, centrifuged at 14,000 RPM for 5 min, and then the supernatant was removed. The clots were resuspended in 100 μl lysis buffer and incubated overnight at 37° C. The lysis buffer Contained 10M urea, 10 mM EDTA, 1% sodium dodecyl sulfate ("SDS"), and 1% 2-mercaptoethanol. After incubation, approximately 5 μl of each sample was brought to a final volume of 20 μl with a reducing sample buffer (containing 125 mM Tris, pH 6.8, 20% glycerol, 4% SDS, 10% 2-mercaptoethanol, and 0.025% bromophenol blue), and applied to 4-15% gradient gels (Integrated Separation Systems, Natick, Mass.) for polyacrylamide electrophoresis (PAGE) at 200 volts for approximately 1 h or until the tracking dye reached the bottom of the gel.
After staining with Coomassie blue, the alpha, beta, and gamma chains of fibrin were visualized as bands on the gel. The presence of FXIIIa-catalyzed fibrin cross-linking was observed by the appearance of a gamma-gamma dimer, and the disappearance of the monomeric gamma band from the gels. The tTG cross-linking occurs by formation of alpha chain polymers and alpha2 -gamma oligomers. Since there are many bands, they are difficult to visualize. A better indication of tTG cross-linking was the disappearance of the monomeric alpha band from the gels. In addition, the gamma band was reduced, but to a lesser degree than in FXIIIa cross-linked clots.
The gels were also scanned on a densitometer (Bio Image Whole Band Analyzer, Millipore Corp., Bedford, Mass.). The relative intensity of gamma-gamma bands were scanned and compared for FXIIIa inhibition, while alpha bands were scanned and compared for tTG inhibition. No cross-linkingwas detected in the negative controls containing only FXIII-free fibrinogen thrombin and DMSO. […] The inhibition results obtained from PAGE of samples prepared as described above, and containing ZG-1400a at 100 μM and 10 μM, or cerulenin or iodoacetamide at 1 mM, 100 μM, and 10 μM, are shown in Table 2.

plasma clots = test: Plasma clot lysis assay; parameters: species or system human; conditions: 100 μM; for % Plasma Clot lysis: clots formed about 20 h, plasminogen and urokinase about 4 h
Procedure: For this assay, 50 μl of one of a series of concentrations of iodoacetic acid, cerulenin, or ZG-1400a was added to 0.5 ml human citrated plasma (prepared from one blood donor) in 5 ml polypropylene tubes. The ZG-1400a and iodoacetic acid were individually prepared in 10% DMSO and tested using half-log dilutions, starting at a final assay concentration of 100 μM and diluting to 10 μM. Cerulenin was prepared in 10% ethanol and tested using half-log dilutions, starting at a final assay concentration of 100 μM and diluting to 10 μM.
Approximately 10^6 cpm ^125 I-fibrinogen (Amersham), 50 mM CaCl2 (20 mM above citrate concentration) and 5 units thrombin (bovine, Enzyme Research Labs) were added to each test and control tube. The tubes were incubated while rocking for 20 h at 37° C. Plasma clots formed in the tubes were washed three times with about 1 ml phosphate buffered saline (PBS). The plasma clots in each tube were counted after the PBS washes.
Approximately 2 ml of 50 mM Tris, pH 7.4, containing 50 mM NaCl, 28 μg plasminogen (human, Calbiochem), and 280 ng urokinase (human, Calbiochem) were added to the clots in test and control tubes. At 1, 2, and 4 h intervals, 25 μl aliquots of the samples were removed from each tube and counted.
The values shown in Table 3 represent the amount of lysis after plasma clots were formed for about 20 h and exposed to plasminogen and urokinase for about 4 h.

[1] = 10 μM, alpha bands, densitometer
[2] = 100 μM, alpha bands, densitometer

SMILES | inhibition at 10 µM (tTG; [1]) [%] | inhibition at 100 µM (tTG; [2]) [%] | inhibition at 1000 µM (tTG; 1 mM, alpha bands, densitometer) [%] | susceptibility of plasma clots to lysis by plasminogen and urokinase (plasma clots) | % Plasma Clot lysis (plasma clots) [%] | inhibition at 10 µM (tTG) [%] | inhibition at 100 µM (tTG) [%] | inhibition at 1000 µM (tTG) [%]
CC=CCC=CCCC(=O)C1OC1C(N)=O (stereo not drawn) [Cerulenin, 2,3-epoxy-4-oxo-7,10-dodecadienamide] | 30 | 79 | 94 | significantly more susceptible to lysis | 97 | – | – | –
NC(=O)CI [Iodoacetamide, iodoacetamide] | – | – | – | – | – | 72 | 68 | 60
C[C@@H]1CCC/C=C\C(=O)Cc2cc(O)cc(O)c2C(=O)O1 [ZG-1400, R(-) enantiomer of cis-resorcylide] | 80 | 83 | – | significantly more susceptible to lysis | 46 | – | – | –
